Measured values taken from patent publication US11141490B2, “Antibody-drug conjugates based on gold compounds” (Research Foundation of the City University of New York, priority 2018, dated 2021).
Several values for one entry are separate records, joined by “and”; a condition that tells them apart may be missing. Identical values can stand only once.

What was measured:
[1] = humans, rheumatoid arthritis medication; cited from earlier work
[2] = DMSO solution at room temperature; cited from earlier work
MCF-10A cells = experiment: Cell viability assay (PrestoBlue), MCF-10A; format: cell-based, human; conditions: MCF-10A non-cancerous breast cell line, 72 h
Procedure: (§1) Cell viability assays were carried out to investigate the anti-proliferative effect of the AGCs. […] Auranofin was used for comparative purposes. […] Cells were incubated with the compounds for 72 hours and viability was assessed with Presto Blue. […] As mentioned before, linkers bring considerable advantages in terms of ADC stability.
(§2) Cell viability analysis for all compounds and AGCs described.
(§3) MCF7, MCF10A and BT-474 were obtained from the American Type Culture Collection (ATCC) (Manassas, Va.) and cultured in Dulbecco's modified Eagle's medium (DMEM) (Mediatech) supplemented with 10% FBS, 1% NEAA and 1% penicillin-streptomycin (MCF7 AND MCF1 OA) or DME HG/F12K, NEAA, 2 mM glutamine, 10% FBS/PS and incubated at 37° C. and 5% CO2 in a humidified incubator.
(§4) After 72 h, cell viability was determined by means of the colorimetric cell viability assay PrestoBlue (Invitrogen, Carlsbad, Calif.) according to the manufacturer's intructions. EC50 were fit using GraphPad Prism 7 to best match the experimental data.
(§5) Tables 3 and Table 4 show EC50 Values (μM) in MCF7, MCF10A and BT474 cell lines determined with [AuCl(PPh3)] (DMF), [Au(mba)(PPh3)]

BT-474 cells = experiment: Cell viability assay (PrestoBlue), BT-474; format: cell-based, human; conditions: BT-474, 72 h
Procedure: as §1, §2, §3, §4, §5

MCF-7 cells = experiment: Cell viability assay (PrestoBlue), MCF-7; format: cell-based, human; conditions: MCF-7, 72 h
Procedure: as §1, §2, §3, §4, §5

| Molecule | patients affected by most severe side effects (diarrhea and rashes) [1] | time stable in solution [2] [h] | EC50 (MCF-10A cells) [µM] | EC50 (BT-474 cells) [µM] | EC50 (MCF-7 cells) |
| --- | --- | --- | --- | --- | --- |
| CC[P](CC)(CC)=[Au][S][C@@H]1O[C@H](COC(C)=O)[C@@H](OC(C)=O)[C@H](OC(C)=O)[C@H]1OC(C)=O [AF, [(2R,3R,4S,5R,6S)-3,4,5-tris(acetyloxy)-6-{[(triethyl-λ5-phosphanylidene)aurio]sulfanyl}-oxan-2-yl]methyl acetate] | 26-40% | > 72 | – | – | – |
| [Au(mba)(PPh3)] [reference compound] | – | – | 5.52 ± 0.36 | 3.51 ± 0.16 | 2.4 µM and 2.36 µM |
| [Cl][Au].c1ccc(P(c2ccccc2)c2ccccc2)cc1 [[AuCl(PPh3)], reference compound] | – | – | 18.9 ± 1.3 | 3.32 ± 0.1 | 3.6 µM and 3.57 µM |
